Assay results reported in patent EP2659887A1, “Use of A-ring aromatic acetyl minocycline and pharmaceutical preparations derived from same for treatment and prevention of inflammation, autoimmune disorders and rejection of transplants” (priority 2012, dated 2013).

Experiments:
humane T-Lymphozyten [1] = test: Viability of stimulated human T lymphocytes (CellTiter-Blue Cell Viability Assay); conditions: up to 5,0 µM; PWM (Figur 2A) or anti-CD3 (Figur 2B) stimulation
Description: Humane T-Lymphozyten wurden in serumfreiem Kulturmedium mit anti-CD3-Antikörpern (Klon OKT3) bzw. mit Pokeweed-Mitogen (PWM, 2 µg/ml) in An- und Abwesenheit verschiedener Konzentrationen von Minocyclin oder Pentaacetylcyclin stimuliert. Die Ermittlung der Proliferation (DNS-Synthese) der Zellen erfolgte nach 72 Stunden über den Einbau von 3H-Thymidin. Zur Überprüfung der Vitalität der Zellkulturen wurde der CeIITiter-Blue® Cell Viability-Assay (Promega) verwendet.

[2] = test system: Experimentelle Autoimmune Enzephalomyelitis (EAE); test: Number of inflammatory immune cell infiltrates in the spinal cord after EAE (histology); type: in vivo, SJL/J-Mäusen; conditions: intraperitoneal or oral, 100 µg/Tag, Tag 13 bis Tag 17; analysis Tag 20
Description: Als Folge einer T-Lymphozyten-Aktivierung und -Differenzierung kommt es bei der EAE zu einer massiven Einwanderung (Infiltration) von Immunzellen in das Rückenmark der Mäuse. Diese Immunzellen vermitteln durch Demyeliniserung und neuronale Schädigung die weitere Erkrankung und lassen sich auf histologischen Schnitten als entzündliche Infiltrate darstellen und analysieren. Die Stärke der Infiltration von Immunzellen in das Rückenmark während der EAE korreliert im Allgemeinen mit dem Schweregrad der EAE-Erkrankung.
Deshalb erfolgte die histologische Analyse der entzündlichen Infiltrate im Rückenmark von SJL/J-Mäusen nach EAE und 5-tägiger therapeutischer Applikation von Minocycline bzw. Pentaacetylcyclin.
Die EAE wurde in SJL/J-Mäusen durch Immunisierung mit einem Myelinprotein-Peptid (Proteolipid-Protein 139-151, PLP 139-151) induziert. Die Applikation von Minocyclin, Pentaacetylcyclin und einem Kontroll-Vehikel erfolgte in einem therapeutischen Ansatz (nach eindeutiger Ausbildung der EAE-Erkrankung) in zwei getrennten Versuchsansätzen: • 1.) intraperitoneal (i.p., 100 µg/Tag) von Tag 13 bis Tag 17 • 2.) oral (100 µg/Tag) von Tag 13 bis Tag 17.
Am Tag 20 nach Immunisierung erfolgte die Aufarbeitung des Rückenmarks der Mäuse für histologische Untersuchungen (Paraffin-Schnitte, HE-Färbungen). […]

[3] = test system: Splenozyten (Milzzellen) der SJL/J-Mäuse; test: Cytokine release of PWM-stimulated mouse splenocytes (ELISA of culture supernatants); type: cell-based, Maus; conditions: Splenocyte, remaining release at 5,0 µM, 48 h (Figur 6A), read-out: Reduktion der Freisetzung von IFN-γ (auf)
Description: Zur Verifizierung der an humanen […] in vitro-Untersuchungen an Splenozyten (Milzzellen) der SJL/J-Mäuse. Diese Splenozyten von wurden mit Pokeweed-Mitogen (PWM, 1 μg/ml) stimuliert und in An- oder Abwesenheit verschiedener Konzentrationen von Minocyclin und Pentaacetylcyclin inkubiert. Nach 48 Stunden erfolgte die Analyse der Zellkulturüberstände hinsichtlich der Freisetzung der Zytokine Interferon-y (IFN-y) und Interleukin-17 (IL-17) mittels spezifischer ELISA (R&D Systems).

humane T-Lymphozyten [4] = test: Proliferation (DNA synthesis, 3H-thymidine incorporation) of stimulated human T lymphocytes; type: cell-based; conditions: remaining proliferation; PWM or anti-CD3 stimulation, 2,5 bis 5,0 µM
Description: In in vitro-Untersuchungen dienten humane T-Lymphozyten des peripheren Blutes gesunder Spender zur Testung der immunmodulatorischen/immunsuppressiven Wirkung der Testsubstanzen. Eine gesteigerte Zellteilung/Proliferation dieser Immunzellen nach Stimulation simuliert in vitro eine Entzündungsreaktion. Eine Verringerung dieser stimulierten Proliferation durch applizierte Substanzen veranschaulicht deren immunmodulatorischen/immunsuppressiven Eigenschaften.

humane T-Lymphozyten [5] = test: Cytokine production of PWM-stimulated human T lymphocytes (ELISA of culture supernatants); type: cell-based; conditions: PWM 2 µg/ml, 48 h
Description: Zytokine stellen Indikatoren für die Stärke einer Entzündungsreaktion dar und sind aktive Regulatoren der Differenzierung und Proliferation von T-Lymphozyten. Aus diesem Grund lassen sich aus den in einem in vitro-Testsystem gewonnenen Daten zur Produktion/Freisetzung von Zytokinen detailliertere Aussagen über die immunmodulierenden/immunsuppressiven Eigenschaften von Testsubstanzen herleiten.
Anschließend erfolgte die Messung der Konzentrationen von Interferon-y (IFN-y), Interleukin-2 (IL-2) und Interleukin-17 (IL-17) in den Zellkulturüberständen mittels spezifischer ELISA (R&D Systems).

[6] = test system: Experimentelle Autoimmune Enzephalomyelitis (EAE); test: Experimental autoimmune encephalomyelitis (EAE) mouse model of multiple sclerosis, therapeutic treatment, EAE score; type: in vivo, SJL/J-Maus; conditions: 100 µg/Tag; for Effekt auf die akute Phase der EAE (EAE-Score): intraperitoneal, Tag 12 bis Tag 20, therapeutic
Description: Als Maß für die Wirkung der therapeutischen Applikation wurde täglich der Schweregrad der EAE-Erkrankung (EAE-Score) bestimmt.

[7] = test system: Splenozyten (Milzzellen) von SJL/J-Mäusen; test: Viability of stimulated mouse splenocytes (CellTiter-Blue Cell Viability Assay); type: cell-based, Maus; conditions: up to 5,0 µM; PWM (Figur 5A) or anti-CD3 (Figur 5B) stimulation
Description: (§1) In weiteren in vitro-Untersuchungen dienten Splenozyten (Milzzellen) von SJL/J-Mäusen zur Testung der immunmodulatorischen/immunsuppressiven Wirkung der Testsubstanzen. Nach Stimulation der Splenozyten mit Pokeweed-Mitogen (PWM, 1 μg/ml) oder mit […] (Klon 145-2C11, BD Biosciences) erfolgte die Inkubation dieser Immunzellen in An- oder Abwesenheit verschiedener Konzentrationen von Minocyclin und Pentaacetylcyclin. Die anschließende Proliferation (DNS-Synthese) der Zellen wurde nach 72 Stunden über den Einbau von […]-Blue® Cell Viability-Assays (Promega).

[8] = test system: Splenozyten (Milzzellen) von SJL/J-Mäusen; test: Proliferation (DNA synthesis, 3H-thymidine incorporation) of stimulated mouse splenocytes; type: cell-based, Maus; conditions: 2,5 bzw. 5,0 µM
Description: as §1

CN(C)c1ccc(O)c2c1C[C@H]1C[C@H]3[C@H](N(C)C)C(O)=C(C(N)=O)C(=O)[C@@]3(O)C(O)=C1C2=O [Minocyclin]
Vitalität der T-Lymphozyten (humane T-Lymphozyten [1]): nicht beeinträchtigt

CC(=O)NC(=O)c1c(OC(C)=O)c2c(c(N(C)C)c1OC(C)=O)CC1Cc3c(N(C)C)ccc(OC(C)=O)c3C(=O)C1=C2OC(C)=O (centres unmarked) [Pentaacetylcyclin]
Zahl der entzündlichen Infiltrate im Rückenmark [2]: deutliche Verringerung
Vitalität der T-Lymphozyten (humane T-Lymphozyten [1]): nicht beeinträchtigt
activity at 5 µM [3]: ~60%
reduzierte Zellteilung (bis auf) (humane T-Lymphozyten [4]): ca. 20%
Produktion/Freisetzung von IL-2 (humane T-Lymphozyten [5]; 2,5 bis 5,0 µM (Figur 3A)): signifikante Hemmung
Produktion/Freisetzung von IFN-γ (humane T-Lymphozyten [5]; 2,5 bis 5,0 µM (Figur 3B)): signifikante Hemmung
Produktion/Freisetzung von IL-17 (humane T-Lymphozyten [5]; 2,5 bis 5,0 µM (Figur 3C)): signifikante Hemmung
Effekt auf die akute Phase der EAE (EAE-Score) [6]: signifikanten therapeutischen Effekt
Effekt auf die akute Phase der EAE (EAE-Score) ([6]; listed as Pentaacetylminocyclin): signifikanten Einfluss
Einfluss auf die akute Phase der EAE (EAE-Score) ([6]; oral, Tag 14 bis Tag 22, therapeutic): signifikanten Einfluss
Vitalität der Splenozyten [7]: keine Veränderung
Proliferation (DNS-Synthese) stimulierter Splenozyten ([8]; PWM (1 µg/ml) or anti-CD3 (145-2C11) stimulation, 72 h): signifikante Hemmung
reduzierte Zellteilung (bis auf) ([8]; remaining proliferation, 4320 min): ca. 30%
